What was measured:
MV4-11 cells = experiment: MV4-11 Cell Cytotoxicity Assay (CellTiter-Blue, 72 h); format: cell-based, human; conditions: Homo sapiens, MV4-11; MV-4-11 cells
How it was run: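 Viability read-out: CellTiter-Blue, 1 h, fluorescence 560/590 nm. Preceded by 72 h exposure (37° C, 5% CO2) to twofold dilution series from 50 μM, triplicate, 0.5% DMSO vehicle, applied 24 h after plating.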

glutathione (GSH) = experiment: Reactivity Profiling with Glutathione (GSH), half-life by HPLC; conditions: 5 mM glutathione (GSH) in IMDM with 10% FBS
Protocol: 3.5 μL of 5 mM stocking solution of the inhibitors in DMSO was added to 697.5 μL of Iscove's Modified Dulbecco's Medium (IMDM) supplemented with 10% FBS and antibiotic antimycotic solution, with 5 mM glutathione to afford a final concentration of 25 μM inhibitor with 0.5% DMSO. The solution was then immediately placed in the sample tray at 25° C. […] For each inhibitor, its peak is integrated at different time points and compared to the time zero injection in order to obtain a percentage remaining. Half-life is calculated according to a first order reaction kinetic taking into account those time points for which remaining percentage of inhibitor is above 40%, using the formula: t½=Ln(2)/k, where k is the slope of the linear plot of Ln[Inhibitor] vs time, according to the formula: Ln[A]=Ln[A]0−kt, where [A] is the value resulting from the integration at each time point, [A]0 the value at time zero, and t the time. For each inhibitor, both replicates are averaged and the resulting t½ reported.

Row | half-life at 25 μM (glutathione (GSH)) [min] | Compound | IC50 (MV4-11 cells) [nM]
1 | 142 to 247 | CC(c1cc(CN(C(=O)CN(Cc2ccccc2F)S(=O)(=O)c2c(F)c(F)c(F)c(F)c2F)c2ccc(C(=O)O)c(O)c2)cc(C2CC2)c1)C(F)(F)F (centres unmarked) [Compound 1086, 4-(N-(3-cyclopropyl-5-(1,1,1-trifluoropropan-2-yl)benzyl)-2-(N-(2-fluorobenzyl)-(2,3,4,5,6-pentafluoro-phenyl)sulfonamido)acetamido)-2-hydroxybenzoic acid] | 1000 to 3160
2 | 142 to 247 | Cc1cc(C(=O)O)ccc1N(Cc1cc(C2CC2)cc(C(C)(C)C)c1)C(=O)CN(Cc1ccccc1F)S(=O)(=O)c1c(F)c(F)c(F)c(F)c1F [Compound 1088, 4-(N-(3-(tert-butyl)-5-cyclopropylbenzyl)-2-(N-(2-fluorobenzyl)-(2,3,4,5,6-pentafluoro-phenyl)sulfonamido)acetamido)-3-methylbenzoic acid] | 0.01 to 316
3 | 554 to 100000 | Cc1cc(C(=O)O)ccc1N(Cc1cc(C2CC2)cc(C(C)(C)C)c1)C(=O)CN(Cc1ccccc1C(F)(F)F)S(=O)(=O)c1c(F)c(F)c(F)c(F)c1F [Compound 1089, 4-(N-(3-(tert-butyl)-5-cyclopropylbenzyl)-2-(N-(2-(trifluoromethyl)benzyl)-(2,3,4,5,6-pentafluoro-phenyl)sulfonamido)acetamido)-3-methylbenzoic acid] | 316 to 1000
4 | 142 to 247 | Cc1cc(C(=O)O)ccc1N(Cc1cc(C2CC2)cc(C(C)(C)C)c1)C(=O)CN(Cc1ccccc1C#N)S(=O)(=O)c1c(F)c(F)c(F)c(F)c1F [Compound 1090, 4-(N-(3-(tert-butyl)-5-cyclopropylbenzyl)-2-(N-(2-cyanobenzyl)-(2,3,4,5,6-pentafluorophenyl)sulfon-amido)acetamido)-3-methylbenzoic acid] | 316 to 1000
5 | 0.1 to 142 | COc1cc(C(=O)O)ccc1N(Cc1cc(C2CC2)cc(C(C)(C)C)c1)C(=O)CN(Cc1ccc(F)nc1F)S(=O)(=O)c1c(F)c(F)c(F)c(F)c1F [Compound 1095, 4-(N-(3-(tert-butyl)-5-cyclopropylbenzyl)-2-(N-((2,6-difluoropyridin-3-yl)methyl)-(2,3,4,5,6-pentafluorophenyl)sulfon-amido)acetamido)-3-methoxybenzoic acid] | 0.01 to 316
6 | 247 to 554 | COc1cc(C(=O)O)ccc1N(Cc1cc(C2CC2)cc(C(C)(C)C)c1)C(=O)CN(Cc1cccnc1C(F)(F)F)S(=O)(=O)c1c(F)c(F)c(F)c(F)c1F [Compound 1097, 4-(N-(3-(tert-butyl)-5-cyclopropylbenzyl)-2-(N-((2-(trifluoromethyl)pyridin-3-yl)methyl)-(2,3,4,5,6-pentafluoro-phenyl)sulfonamido)acetamido)-3-methoxybenzoic acid] | 316 to 1000
7 | 247 to 554 | O=C(O)c1ccc(N(Cc2cc(C3CC3)cc(C3CC3)c2)C(=O)CN(Cc2ccccc2F)S(=O)(=O)c2c(F)c(F)c(F)c(F)c2F)c(OC2CC2)c1 [Compound 1099, 3-cyclopropoxy-4-(N-(3,5-dicyclopropylbenzyl)-2-(N-(2-fluorobenzyl)-(2,3,4,5,6-pentafluoro-phenyl)sulfonamido)acetamido)benzoic acid] | 0.01 to 316
8 | 0.1 to 142 | CC(C)(C)c1cc(CN(C(=O)CN(C2CC2)S(=O)(=O)c2c(F)c(F)c(F)c(F)c2F)c2ccc(C(=O)O)cc2OC2CC2)cc(C2CC2)c1 [Compound 1100, 4-(N-(3-(tert-butyl)-5-cyclopropylbenzyl)-2-(N-cyclopropyl-(2,3,4,5,6-pentafluorophenyl)sulfon-amido)acetamido)-3-cyclopropoxybenzoic acid] | 316 to 1000

More lines, now with the values behind:

Row | Compound | half-life at 25 μM (glutathione (GSH)) [min] | IC50 (MV4-11 cells) [nM]
9 | CC(C)(C)c1cc(CN(C(=O)CN(Cc2ccccc2F)S(=O)(=O)c2c(F)c(F)c(F)c(F)c2F)c2ccc(C(=O)O)cc2F)cc(C2CC2)c1 [Compound 1065, 4-(N-(3-(tert-butyl)-5-cyclopropylbenzyl)-2-(N-(2-fluorobenzyl)-(2,3,4,5,6-pentafluoro-phenyl)sulfonamido)acetamido)-3-fluorobenzoic acid] | 0.1 to 142 | 316 to 1000
10 | CC(C)(C)c1cc(CN(C(=O)CN(Cc2ccccc2F)S(=O)(=O)c2c(F)c(F)c(F)c(F)c2F)c2ccc(C(=O)O)c(N)c2)cc(C2CC2)c1 [Compound 1070, 2-amino-4-(N-(3-(tert-butyl)-5-cyclopropylbenzyl)-2-(N-(2-fluorobenzyl)-(2,3,4,5,6-pentafluoro-phenyl)sulfonamido)acetamido)benzoic acid] | 0.1 to 142 | 316 to 1000
11 | CN(C)c1cc(N(Cc2cc(C3CC3)cc(C(C)(C)C)c2)C(=O)CN(Cc2ccccc2F)S(=O)(=O)c2c(F)c(F)c(F)c(F)c2F)ccc1C(=O)O [Compound 1071, 4-(N-(3-(tert-butyl)-5-cyclopropylbenzyl)-2-(N-(2-fluorobenzyl)-(2,3,4,5,6-pentafluoro-phenyl)sulfonamido)acetamido)-2-(dimethylamino) benzoic acid] | 142 to 247 | 316 to 1000
12 | Cc1cc(C(=O)O)cc(C)c1N(Cc1cc(C2CC2)cc(C(C)(C)C)c1)C(=O)CN(Cc1ccccc1F)S(=O)(=O)c1c(F)c(F)c(F)c(F)c1F [Compound 1072, 4-(N-(3-(tert-butyl)-5-cyclopropylbenzyl)-2-(N-(2-fluorobenzyl)-(2,3,4,5,6-pentafluoro-phenyl)sulfonamido)acetamido)-3,5-dimethylbenzoic acid] | 247 to 554 | 316 to 1000
13 | COc1cc(C(=O)O)ccc1N(Cc1cc(C2CC2)cc(C(C)(C)C)c1)C(=O)C[C@@H](C)N(Cc1ccccc1F)S(=O)(=O)c1c(F)c(F)c(F)c(F)c1F [Compound 1073] | 0.1 to 142 | 316 to 1000
14 | COc1cc(C(=O)O)ccc1N(Cc1cc(C2CC2)cc(C(C)(C)C)c1)C(=O)CN(Cc1ccc(F)cc1F)S(=O)(=O)c1c(F)c(F)c(F)c(F)c1F [Compound 1076, 4-(N-(3-(tert-butyl)-5-cyclopropylbenzyl)-2-(N-(2,4-difluorobenzyl)-(2,3,4,5,6-pentafluorophenyl)sulfon-amido)acetamido)-3-methoxybenzoic acid] | 142 to 247 | 316 to 1000
15 | COc1cc(F)ccc1CN(CC(=O)N(Cc1cc(C2CC2)cc(C(C)(C)C)c1)c1ccc(C(=O)O)cc1OC)S(=O)(=O)c1c(F)c(F)c(F)c(F)c1F [Compound 1077, 4-(N-(3-(tert-butyl)-5-cyclopropylbenzyl)-2-(N-(4-fluoro-2-methoxybenzyl)-(2,3,4,5,6-pentafluoro-phenyl)sulfonamido)acetamido)-3-methoxybenzoic acid] | 142 to 247 | 316 to 1000
16 | COc1cc(C(=O)O)ccc1N(Cc1cc(C2CC2)cc(C(C)(C)C)c1)C(=O)CN(Cc1c(Cl)cc(F)cc1Cl)S(=O)(=O)c1c(F)c(F)c(F)c(F)c1F [Compound 1079, 4-(N-(3-(tert-butyl)-5-cyclopropylbenzyl)-2-(N-(2,6-dichloro-4-fluorobenzyl)-(2,3,4,5,6-pentafluorophenyl)sulfon-amido)acetamido)-3-methoxybenzoic acid] | 247 to 554 | 0.01 to 316
17 | COc1cc(C(=O)O)ccc1N(Cc1cc(C2CC2)cc(C(C)(C)C)c1)C(=O)CN(Cc1cccc(F)c1F)S(=O)(=O)c1c(F)c(F)c(F)c(F)c1F [Compound 1080, 4-(N-(3-(tert-butyl)-5-cyclopropylbenzyl)-2-(N-(2,3-difluorobenzyl)-(2,3,4,5,6-pentafluorophenyl)sulfonamido)acetamido)-3-methoxybenzoic acid] | 142 to 247 | 0.01 to 316
18 | COc1cc(C(=O)O)ccc1N(Cc1cc(C2CC2)cc(C(C)(C)C)c1)C(=O)CN(Cc1c(F)c(F)cc(F)c1F)S(=O)(=O)c1c(F)c(F)c(F)c(F)c1F [Compound 1082, 4-(N-(3-(tert-butyl)-5-cyclopropylbenzyl)-2-(N-(2,3,5,6-tetrafluorobenzyl)-(2,3,4,5,6-pentafluoro-phenyl)sulfonamido)acetamido)-3-methoxybenzoic acid] | 142 to 247 | 0.01 to 316
19 | COc1cc(C(=O)O)ccc1N(Cc1cc(C2CC2)cc(C(C)(C)C)c1)C(=O)CN(Cc1ccc(F)c(F)c1F)S(=O)(=O)c1c(F)c(F)c(F)c(F)c1F [Compound 1083, 4-(N-(3-(tert-butyl)-5-cyclopropylbenzyl)-2-(N-(2,3,4-trifluorobenzyl)-(2,3,4,5,6-pentafluoro-phenyl)sulfonamido)acetamido)-3-methoxybenzoic acid] | 247 to 554 | 0.01 to 316
20 | COc1cc(C(=O)O)ccc1N(Cc1cc(C2CC2)cc(C(C)(C)C)c1)C(=O)CN(Cc1ncccc1F)S(=O)(=O)c1c(F)c(F)c(F)c(F)c1F [Compound 1084, 4-(N-(3-(tert-butyl)-5-cyclopropylbenzyl)-2-(N-((3-fluoropyridin-2-yl)methyl)-(2,3,4,5,6-pentafluoro-phenyl)sulfonamido)acetamido)-3-methoxybenzoic acid] | 0.1 to 142 | 316 to 1000
21 | COc1cc(C(=O)O)ccc1N(Cc1cc(C2CC2)cc(C(C)(C)C)c1)C(=O)CN(Cc1ccc(F)cn1)S(=O)(=O)c1c(F)c(F)c(F)c(F)c1F [Compound 1085, 4-(N-(3-(tert-butyl)-5-cyclopropylbenzyl)-2-(N-((5-fluoropyridin-2-yl)methyl)-(2,3,4,5,6-pentafluoro-phenyl)sulfonamido)acetamido)-3-methoxybenzoic acid] | 0.1 to 142 | 316 to 1000
22 | CC(C)(C)c1cc(CN(C(=O)CN(Cc2ccccc2F)S(=O)(=O)c2c(F)c(F)c(F)c(F)c2F)c2ccc(C(=O)O)cc2OC2CC(F)(F)C2)cc(C2CC2)c1 [Compound 1093, 4-(N-(3-(tert-butyl)-5-cyclopropylbenzyl)-2-(N-(2-fluorobenzyl)-(2,3,4,5,6-pentafluoro-phenyl)sulfonamido)acetamido)-3-(3,3-difluorocyclobutoxy) benzoic acid] | 554 to 100000 | 316 to 1000
